Measurements taken from patent US7514446B2, “Pyrimidine compounds” (SmithKline Beecham Corporation, priority 2003, dated 2009).
Counter-ions that a name gives are not always drawn.

What was measured:
PLK1 kinase domain = target: T1, PLK1 kinase domain (Homo sapiens, UniProt P53350); assay: Assay for inhibition of PLK1 (SPA, 33P-ATP, His-tagged PLK kinase domain); assay type: biochemical; settings: 2 μM ATP, read-out: Ave pIC50 PLK Enzyme Inhibition (converted)
T1 construct: made in house; host or cells: baculovirus-infected T. ni insect cells
T1 sequence (P53350 21-346): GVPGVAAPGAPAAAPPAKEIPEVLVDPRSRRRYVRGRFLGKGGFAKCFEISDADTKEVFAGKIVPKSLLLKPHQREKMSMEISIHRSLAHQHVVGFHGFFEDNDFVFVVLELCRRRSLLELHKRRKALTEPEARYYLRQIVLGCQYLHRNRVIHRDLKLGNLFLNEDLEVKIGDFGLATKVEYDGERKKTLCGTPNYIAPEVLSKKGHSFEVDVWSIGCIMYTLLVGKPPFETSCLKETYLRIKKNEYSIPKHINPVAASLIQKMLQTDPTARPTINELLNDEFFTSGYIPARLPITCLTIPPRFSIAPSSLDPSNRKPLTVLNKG
Method: I. Assay for Inhibition of PLK1
A. Preparation of 6× N-terminal His-tagged PLK Kinase Domain
6× N-terminal His-tagged PLK kinase domain (amino acids 21-346 preceded by […]) was prepared from baculovirus infected T. ni cells under polyhedrin promoter control. All procedures were performed at 4° C. Cells were lysed in 25 mM HEPES, 200 mM NaCl, 25 mM imidazole; pH 8.0. The homogenate was centrifuged at 14K rpm in a SLA-1500 rotor for 40 min and the supernatant filtered through a 1.2 micron filter. The supernatant was loaded onto a Nickel chelating Sepharose (Amersham Pharmacia) column and washed with 25 mM HEPES, 500 mM NaCl, 25 mM imidazole; pH 8.0. The column was then washed with a 16.6% B step where buffer B is 25 mM HEPES, 500 mM NaCl, 300 mM imidazole; pH 8.0. Protein was eluted using a 10-column volume linear gradient from 16.6% B to 100% B. Fractions containing PLK were determined by SDS-PAGE. PLK was concentrated using a 10 kDa molecular weight cutoff membrane and then loaded onto a Superdex 75 gel filtration (Amersham Pharmacia) column equilibrated in 25 mM HEPES, 1 mM DTT, 500 mM NaCl; pH 8.0. Fractions containing PLK were determined by SDS-PAGE. PLK was pooled, aliquoted and stored at −80° C. Samples were quality controlled using mass spectrometry.
B. Enzyme Activity+/−Inhibitors was Determined as Follows:
Compounds were added to the plate (1 μl in 100% DMSO). DMSO (2% final) and EDTA (55.5 mM final) were used as controls. Reaction Mix A is prepared as follows at 4° C.:
Reaction Mix A (substrate Mix): • 25 mM HEPES, pH 7.2 • 15 mM MgCl2 • 2 μM ATP • 0.1 μCi/well ^33P-γ ATP (10 Ci/mMol) • 2 μM substrate peptide (Biotin-Ahx-[…]) Reaction Mix B is prepared as follows at 4° C.:
Reaction Mix B (Enzyme Mix) • 25 mM HEPES, pH 7.2 • 15 mM MgCl2 • 0.15 mg/ml BSA • 2 mM DTT • 2-10 nM PLK1 kinase domain
Reaction Mix A (20 μl) is added per well. Reaction Mix B (20 μl) is added per well. Incubate 1.5 hrs. at RT. The enzymatic reaction is stopped with 175 μl of SPA/EDTA bead mix (29 mM EDTA, 2.5 mg/ml Streptavidin-coated SPA in Standard Dulbecco's PBS (without Mg^2+ and Ca^2+), 60 μM ATP). Plates are sealed spun (after a 1 hr incubation at RT) at 1,000×g for 7 min or settled overnight, then plates counted in Packard TopCount for 30 seconds/well.

[1] = test system: H460 lung tumor cell line; assay: Methylene Blue Growth Inhibition Assay, H460; assay type: cell-based; settings: Homo sapiens, NCI-H460, 72 h; H460 cells, 3 days; read-out: MeB Cell Line IC50
Method: (§1) II. Methylene Blue Growth Inhibition Assay
(§2) Normal Human foreskin fibroblasts (HFF) and human colon (HCT116, RKO), lung (H460), prostate (PC3), and breast tumor (MCF7) cell lines were cultured in high glucose DMEM (Life Technologies) containing 10% fetal bovine serum (FBS) at 37° C. in a humidified 10% CO2, 90% air incubator. Cells were harvested using trypsin/EDTA, counted using a haemocytometer, and plated in 100 μl of the appropriate media, at the following densities, in a 96-well tissue culture plate (Falcon 3075): HFF 5,000 cells/well, HCT116 3,000 cells/well, RKO 2,500 cells/well, H460 2,000 cells/well, PC3 8,000 cells/well, MCF7 4,000 cells/well. The next day, compounds were diluted in DMEM containing 100 μg/ml gentamicin, at twice the final required concentration, from 10 mM stock solutions in DMSO. 100 μl/well of these dilutions were added to the 100 μl of media currently on the cell plates. Medium containing 0.6% DMSO was added to control wells. Compounds diluted in DMEM were added to all cell lines. The final concentration of DMSO in all wells was 0.3%. Cells were incubated at 37° C., 10% CO2 for 3 days. Medium was removed by aspiration. Cell biomass was estimated by staining cells with 90 μl per well methylene blue (Sigma M9140, 0.5% In 50:50 ethanol:water), and incubation at room temperature for at least 30 minutes. Stain was removed, and the plates rinsed under a gentle stream of water, and air-dried. To release stain from the cells 100 μl of solubilization solution was added (1% N-lauroyl sarcosine, Sodium salt, Sigma L5125, in PBS), and plates were shaken gently for about 30 minutes. Optical density at 620 nm was measured on a microplate reader. Percent inhibition of cell growth was calculated relative to vehicle treated control wells. Concentration of compound that inhibits 50% of cell growth (IC50) was interpolated using nonlinear regression (Levenberg-Marquardt) and the equation, y=Vmax*(1−(x/(K+x)))+Y2, where “K” was equal to the IC50. In Table 1, +=10->30 uM; ++=1-10 uM: +++=<1 uM.

[2] = test system: HCT116 colon tumor cell line; assay: Methylene Blue Growth Inhibition Assay, HCT116; assay type: cell-based; settings: Homo sapiens, HCT-116, 72 h; HCT116 cells, 3 days; read-out: MeB Cell Line IC50
Method: as §1, §2

[3] = test system: Normal Human foreskin fibroblasts (HFF); assay: Methylene Blue Growth Inhibition Assay, HFF; assay type: cell-based; settings: 72 h, HFF cells, 3 days, read-out: MeB Cell Line IC50
Method: as §1, §2

[4] = test system: MCF7 breast tumor cell line; assay: Methylene Blue Growth Inhibition Assay, MCF7; assay type: cell-based; settings: Homo sapiens, 72 h; MCF7 cells, 3 days; read-out: MeB Cell Line IC50
Method: as §1, §2

[5] = test system: PC3 prostate tumor cell line; assay: Methylene Blue Growth Inhibition Assay, PC3; assay type: cell-based; settings: Homo sapiens, PC-3, 72 h; PC3 cells, 3 days; read-out: MeB Cell Line IC50
Method: as §1, §2

[6] = test system: RKO colon tumor cell line; assay: Methylene Blue Growth Inhibition Assay, RKO; assay type: cell-based; settings: Homo sapiens, 72 h; RKO cells, 3 days; read-out: MeB Cell Line IC50
Method: as §1, §2

For `COc1cc(Nc2ncc([N+](=O)[O-])c(Nc3ccc(Cl)cc3C(=O)c3ccccc3F)n2)cc(OC)c1OC` [Example 36, [5-Chloro-2-({5-nitro-2-[(3,4,5-trimethoxyphenyl)amino]pyrimidin-4-yl}amino)phenyl](2-fluorophenyl)methanone hydrochloride], the IC50 (PLK1 kinase domain) was < 0.1 µM, the IC50 [1] was 1 to 10 µM and the IC50 [2] was 1 to 10 µM. For the same compound, the IC50 [3] was > 10 µM, the IC50 [4] was 1 to 10 µM and the IC50 [5] was > 10 µM. It also gave an IC50 [6] of 1 to 10 µM.

For `COc1cc(Nc2ncc([N+](=O)[O-])c(Nc3cccc4c3C(=O)CCC4)n2)cc(OC)c1OC` [Example 9, 8-({5-nitro-2-[(3,4,5-trimethoxyphenyl)amino]pyrimidin-4-yl}amino)-3,4-dihydronaphthalen-1(2H)-one hydrochloride], the IC50 (PLK1 kinase domain) was < 0.1 µM, the IC50 [1] was 1 to 10 µM and the IC50 [2] was 1 to 10 µM. The IC50 [3] was > 10 µM, the IC50 [4] was 1 to 10 µM and the IC50 [5] was 1 to 10 µM. It also gave an IC50 [6] of 1 to 10 µM.

With `COc1cc(Nc2ncc([N+](=O)[O-])c(Nc3ccc(O)cc3C(=O)O)n2)cc(OC)c1OC` [Example 22, 5-Hydroxy-2-({5-nitro-2-[(3,4,5-trimethoxyphenyl)amino]pyrimidin-4-yl}amino)benzoic acid hydrochloride] the IC50 (PLK1 kinase domain) was < 0.1 µM, the IC50 [1] was > 10 µM and the IC50 [2] was > 10 µM. For the same compound, the IC50 [3] was > 10 µM, the IC50 [4] was > 10 µM and the IC50 [5] was > 10 µM. The IC50 [6] was > 10 µM.

In the case of `COc1cc(Nc2ncc([N+](=O)[O-])c(Nc3cccc4[nH]ccc34)n2)cc(OC)c1OC` [Example 15, N^4-(1H-indol-4-yl)-5-nitro-N^2-(3,4,5-trimethoxyphenyl)pyrimidine-2,4-diamine hydrochloride], the IC50 (PLK1 kinase domain) is reported as < 0.1 µM, the IC50 [1] is reported as 1 to 10 µM and the IC50 [2] is reported as 1 to 10 µM. For the same compound, the IC50 [3] was 1 to 10 µM, the IC50 [4] was 1 to 10 µM and the IC50 [5] was 1 to 10 µM. The IC50 [6] was < 1 µM.

In the case of `CC(=O)Nc1ccc(Nc2ncc([N+](=O)[O-])c(Nc3ccccc3C(=O)c3ccccc3)n2)cc1` [Example 7, N-[4-({4-[(2-benzoylphenyl)amino]-5-nitropyrimidin-2-yl}amino)phenyl]acetamide hydrochloride], the IC50 (PLK1 kinase domain) is reported as < 0.1 µM, the IC50 [1] is reported as 1 to 10 µM and the IC50 [2] is reported as 1 to 10 µM. For the same compound, the IC50 [3] was > 10 µM, the IC50 [4] was 1 to 10 µM and the IC50 [5] was 1 to 10 µM. The IC50 [6] was 1 to 10 µM.

`COc1cc(Nc2ncc(C#N)c(Nc3ccccc3C(=O)c3ccc(C)cc3)n2)cc(OC)c1OC` [Example 39, 4-{[2-(4-Methylbenzoyl)phenyl]amino}-2-[(3,4,5-trimethoxyphenyl)amino]pyrimidine-5-carbonitrile] was tested, and the IC50 (PLK1 kinase domain) was < 0.1 µM, the IC50 [1] was 1 to 10 µM and the IC50 [2] was 1 to 10 µM. The IC50 [3] was > 10 µM, the IC50 [4] was 1 to 10 µM and the IC50 [5] was 1 to 10 µM. The IC50 [6] was 1 to 10 µM.

`COc1cc(Nc2ncc([N+](=O)[O-])c(Nc3cccc4c3OCCO4)n2)cc(OC)c1OC` [Example 19, N^4-(2,3-dihydro-1,4-benzodioxin-5-yl)-5-nitro-N^2-(3,4,5-trimethoxyphenyl)pyrimidine-2,4-diamine hydrochloride] was tested, and the IC50 (PLK1 kinase domain) was < 0.1 µM, the IC50 [1] was 1 to 10 µM and the IC50 [2] was > 10 µM. The IC50 [3] was > 10 µM, the IC50 [4] was 1 to 10 µM and the IC50 [5] was > 10 µM. It also gave an IC50 [6] of 1 to 10 µM.

`COc1cc(Nc2ncc([N+](=O)[O-])c(Nc3ccccc3C(=O)NC3CCCCC3)n2)cc(OC)c1OC` [Example 34, N-Cyclohexyl-2-({5-nitro-2-[(3,4,5-trimethoxyphenyl)amino]pyrimidin-4-yl}amino)benzamide hydrochloride] was tested, and the IC50 (PLK1 kinase domain) was < 0.1 µM, the IC50 [1] was 1 to 10 µM and the IC50 [2] was 1 to 10 µM. The IC50 [3] was 1 to 10 µM, the IC50 [4] was 1 to 10 µM and the IC50 [5] was > 10 µM. For the same compound, the IC50 [6] was 1 to 10 µM.
